Laboratory results as given in US10683553B2, “Method for determining sensitivity to simultaneous inhibitor against PARP and Tankyrase” (THE ASAN FOUNDATION, priority 2015, dated 2020).

Columns and labels:
Assay type in all cases: cell-based
[1] = system: SW48 colon cancer cell line; test: MTS cell viability / IC50; conditions: Homo sapiens
Method: (§1) The present inventors conducted an in vitro cell base assay to analyze the anticancer activity of Compound A, which is a novel PARP/Tankyrase simultaneous inhibitor, in 18 human colon cancer cell lines (Korean Cell Line Bank and ATCC purchased), and the cell viability and IC50 of the cell lines for Compound A, the novel PARP/Tankyrase simultaneous inhibitor, were measured.
(§2) As the experimental conditions and methods, a total of 18 human colon cancer cell lines were cultured in RPMI1640 (Roswell Park Memorial Institute 1640; 10% FBS, 1% penicillin/streptomycin), and each cell line was cultured in 96 well plate for 2×10^3 per well at 37° C. for 24 hours and the novel PARP/Tankyrase simultaneous inhibitor, Compound A, was diluted by a multiple of 2 at a maximum of 100 μM and a minimum of 0.390625 μM (100 μM, 50 μM, 25 μM, 12.5 μM, 6.25 μM, 3.125 μM, 1.5625 μM, 0.78125 μM and 0.390625 μM). After the treatment, it was cultured at 37° C. for 72 hours. As for the drug treatment group and non-treatment group, the cell viability of each cell line was measured by MTS analysis (Promega, CellTiter 96 AQeous One Solution) and the IC50 of each cell line was measured using the PRISM program.
(§3) The present inventors analyzed the correlation of 18 human colon cancer cell lines, an anti-cancer effect of Compound A which is a novel PARP/Tankyrase simultaneous inhibitor and the genotype of the p53 gene through an in vitro cell base assay in the same experimental method as Example 1 in 18 human colon cancer cell lines.

[2] = system: HT-29 colon cancer cell line; test: MTS cell viability / IC50; conditions: Homo sapiens
Method: as §1, §2, §3

[3] = system: Colo320HSR colon cancer cell line; test: MTS cell viability / IC50; conditions: Homo sapiens, COLO-320-HSR
Method: as §1, §2, §3

[4] = system: LoVo colon cancer cell line; test: MTS cell viability / IC50; conditions: Homo sapiens
Method: as §1, §2, §3

[5] = system: SW1417 colon cancer cell line; test: MTS cell viability / IC50; conditions: Homo sapiens
Method: as §1, §2, §3

[6] = system: Caco-2 colon cancer cell line; test: MTS cell viability / IC50; conditions: Homo sapiens
Method: as §1, §2, §3

[7] = system: SW480 colon cancer cell line; test: MTS cell viability / IC50; conditions: Homo sapiens
Method: as §1, §2, §3

[8] = system: HCT116 colon cancer cell line; test: MTS cell viability / IC50; conditions: Homo sapiens, HCT-116
Method: as §1, §2, §3

[9] = system: HCT-15 colon cancer cell line; test: MTS cell viability / IC50; conditions: Homo sapiens
Method: as §1, §2, §3

[10] = system: Ls1034 colon cancer cell line; test: MTS cell viability / IC50; conditions: Homo sapiens, LS-1034
Method: as §1, §2, §3

[11] = system: Ls174T colon cancer cell line; test: MTS cell viability / IC50; conditions: Homo sapiens
Method: as §1, §2, §3

[12] = system: Colo201 colon cancer cell line; test: MTS cell viability / IC50; conditions: Homo sapiens, COLO 201
Method: as §1, §2, §3

[13] = system: DLD-1 colon cancer cell line; test: MTS cell viability / IC50; conditions: Homo sapiens
Method: as §1, §2, §3

[14] = system: Colo205 colon cancer cell line; test: MTS cell viability / IC50; conditions: Homo sapiens, COLO 205
Method: as §1, §2, §3

[15] = system: HCT116 human colon cancer cell line; test: DNA damage by r-H2AX immunocytochemistry; conditions: HCT116 (p53 normal type); 50 μM, 48 hours
Text: In order to analyze the degree of DNA damage of Compound A, which is a novel PARP/Tankyrase simultaneous inhibitor when the p53 gene is a normal type, the present inventors treated a novel PARP/Tankyrase simultaneous inhibitor, Compound A, and the competitive drug PARP inhibitor, olaparib, in the HCT116 human colon cancer cell line in which the p53 gene is a normal type, and then the DNA damage was confirmed by immunochemical method as the expression level of r-H2AX. The conditions and methods of the experiment were as follows: HCT116 human colon cancer cell line in which the p53 gene is a normal type was cultured in RPMI1640 (10% FBS, 1% penicillin/streptomycin) and cultured in a 60 mm plate at 1×10^5 per well for 24 hours at 37° C. Compound A, which is a novel PARP/Tankyrase simultaneous inhibitor, and olaparib, which is a competitive drug PARP inhibitor, were treated with 50 μM each and were cultured for 48 hours. […] The r-H2AX antibody was diluted at a ratio of 1:100 in 1% BSA, reacted overnight at 4° C., washed three times for 10 minutes with TBS-T buffer, and the secondary antibody (alexa Fluor®488 fitc) was diluted at a ratio of 1:100 in 1% BSA, reacted at room temperature for 2 hours, and then washed with TBS-T A buffer three times for 10 minutes, and stained with DAPI (4′,6-diamidino-2-phenylindole) to confirm the expression level of r-H2AX under a fluorescence microscope.

In the case of `CCOc1cc(CN(C)C)cc2[nH]c(=O)c3c(c12)NCCC3` [Compound A, 8-[(dimethylamino)methyl]-10-ethoxy-1,2,3,4-tetrahydrobenzo[h][1,6]naphthyridin-5(6H)-one], the IC50 ([1]; SW48, p53 Wild-type cell line) is reported as > 100 µM, the IC50 ([1]; SW48, MTS, 72 hours) is reported as > 100 µM and the IC50 ([2]; HT29, p53 Mutant type cell line) is reported as 32.2 µM. It also gave an IC50 ([2]; MTS, 72 hours) of 32.2 µM, an IC50 ([3]; Colo320, MTS, 72 hours) of 8.27 µM and an IC50 ([3]; Colo320HSR, p53 Mutant type cell line) of 8.27 µM. The IC50 ([4]; MTS, 72 hours) was 18.6 µM, the IC50 ([4]; p53 Wild-type cell line) was 18.6 µM and the IC50 ([5]; SW1417, p53 Mutant type cell line) was > 100 µM. The IC50 ([5]; SW1417, MTS, 72 hours) was > 100 µM, the IC50 ([6]; Caco-2, p53 Mutant type cell line) was 19.2 µM and the IC50 ([6]; Caco-2, MTS, 72 hours) was 19.2 µM. The IC50 ([7]; SW480, p53 Mutant type cell line) was > 100 µM, the IC50 ([7]; SW480, MTS, 72 hours) was > 100 µM and the IC50 ([8]; HCT116, p53 Wild-type cell line) was 13.2 µM. For the same compound, the IC50 ([8]; HCT116, MTS, 72 hours) was 13.2 µM, the IC50 ([9]; HCT-15, p53 Mutant type cell line) was > 100 µM and the IC50 ([9]; HCT-15, MTS, 72 hours) was > 100 µM. For the same compound, the IC50 ([10]; LS1034, p53 Mutant type cell line) was > 100 µM, the IC50 ([10]; Ls1034, MTS, 72 hours) was > 100 µM and the IC50 ([11]; LS174T, p53 Wild-type cell line) was 12.2 µM. It also gave an IC50 ([11]; Ls174T, MTS, 72 hours) of 12.2 µM, an IC50 ([12]; Colo201, p53 Mutant type cell line) of 28.4 µM and an IC50 ([12]; Colo201, MTS, 72 hours) of 28.4 µM. For the same compound, the IC50 ([13]; DLD-1, p53 Mutant type cell line) was 85.6 µM, the IC50 ([13]; DLD-1, MTS, 72 hours) was 85.6 µM and the IC50 ([14]; Colo205, p53 Mutant type cell line) was 24.4 µM. For the same compound, the IC50 ([14]; Colo205, MTS, 72 hours) was 24.4 µM and the “DNA damage: expression level of r-H2AX (immunocytochemistry)” value [15] was “higher expression of r-H2AX than the group treated with olaparib”.
